From US20220144853A1, “IMIDAZOLINE DERIVATIVES AS CXCR4 MODULATORS” (Université de Paris, priority 2019, published 2022)
Where a name gives a salt, the structure may show the parent alone.

Legend:
IL-18 = experiment: Cytokine production by R848-activated PBMCs, LEGENDplex Human Inflammation panel 1: IL-18; assay type: cell-based; conditions: Homo sapiens, PBMC, PBMCs from 2 healthy donors, R848 overnight
Protocol: (§1) 2) The PBMCs used herein were prepared as described in part A “immune cells preparation”, section 2) above. PBMCs were seeded at 4.10^6/mL. […] Cells were then stimulated with the TLR7/8 agonist resiquimod—R848 (Sigma-Aldrich, MO, USA) at 5 μg/mL.
(§2) Cytokine expression levels were assessed using LEGENDplex Human inflammation panel 1 Kit (BioLegend, California, USA), which is a bead-based multiplex assay, using fluorescence-encoded beads. […] First, supernatants of R848-stimulated PBMCs were harvested after 24 h of stimulation and frozen at −20° C. for storage. Supernatants were dispensed into a 96-well V-bottom plate. Protocol pursued as per manufacturer recommendations (Manual for BioLegend LEGENDplex, Multi-Analyte Flow Assay Kit, Human Inflammation Panel 1, version 750000393_R01).

[1] = molecular target: T1, human CXCR4 (hCXCR4) receptor (Homo sapiens, UniProt P61073); experiment: BRET assay of antagonist activity on the CXCR4-CXCL12 signaling pathway in transfected HEK-293 T cells; assay type: cell-based; conditions: Gαi1, Gαi2, Gαi3, GαoB or Gαz, EC80 CXCL12, FIG. 6
T1 construct: expressed in transfected cells; host or cells: HEK-293 T cells, transient co-transfection with polyethylenimine
T1 sequence (P61073 whole entry): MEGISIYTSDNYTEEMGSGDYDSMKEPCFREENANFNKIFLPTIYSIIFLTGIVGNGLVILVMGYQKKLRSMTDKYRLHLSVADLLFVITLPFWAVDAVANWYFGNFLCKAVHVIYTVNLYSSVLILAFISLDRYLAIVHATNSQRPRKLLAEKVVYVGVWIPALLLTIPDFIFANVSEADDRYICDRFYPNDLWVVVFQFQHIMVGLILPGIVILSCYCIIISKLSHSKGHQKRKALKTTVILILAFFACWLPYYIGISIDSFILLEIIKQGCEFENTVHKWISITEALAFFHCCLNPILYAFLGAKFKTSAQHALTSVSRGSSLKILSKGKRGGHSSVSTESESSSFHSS
Protocol: Examples of the present invention were tested for their antagonist activity on human CXCR4 (hCXCR4) receptor transiently over-expressed in HEK-293 T cells. Compounds exert antagonist activity if they decrease the action of CXCL12 on the receptor.
HEK-293 T cells are maintained in Dulbecco's Modified Eagle's Medium supplemented with 10% Foetal Calf Serum, 1% Penicillin/Streptomycin at 37° C./5% CO2. […] After transfection, cells are cultured for 48 h at 37° C./5% CO2.
On the day of the assay, cells are detached using trypsin 0.05%, resuspended in assay buffer (1.8 mM CaCl2, 1 mM MgCl2, 2.7 mM KCl, 137 mM NaCl, 0.4 mM NaH2PO4, 5.5 mM D-Glucose, 11.9 mM NaHCO3, 25 mM Hepes) and seeded in 384 well plate at a density of 20,000 cells per well.
Cells are first incubated for 10 minutes with the compound alone. Then, cells are stimulated by an EC80 CXCL12 concentration for additional 10 minutes and luminescence is recorded. […] Antagonist activity is evaluated in comparison to basal signals evoked by EC80 CXCL12 alone.
For IC50 determination, a dose-response test is performed using 20 concentrations (ranging over 6 logs) of each compound. Dose-response curves are fitted using the sigmoidal dose-response (variable slope) analysis in GraphPad Prism software (GraphPad Software) and IC50 of antagonist activity is calculated. […]

[2] = system: IFN production by activated PBMCs; experiment: IFN production by R848-activated PBMCs from healthy donors, twINNE reporter cell line; assay type: cell-based, human; conditions: Homo sapiens, PBMC, means of two results over 2 healthy donors, R848 5 μg/mL, IT1t: mean over all experiments, read-out: IC50 of anti-inflammatory activity (IFN production)
Summary of the method: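 Human PBMCs (4.10^6/mL, RPMI/10% FBS, 37° C) stimulated with R848 at 5 μg/mL; supernatants collected after 24 h. Functional IFN measured on twINNE cells (ISRE-driven luciferase reporter) after 24 h culture by bioluminescence; IC50 from variable-slope dose-response fits.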

TNF-α = experiment: Cytokine production by R848-activated PBMCs, LEGENDplex Human Inflammation panel 1: TNF-α; assay type: cell-based; conditions: Homo sapiens, PBMC, PBMCs from 2 healthy donors, R848 overnight
Protocol: as §1, §2

[3] = system: IFN production by activated immune cells (PBMC) from lupus patients; experiment: IFN production by R848-activated PBMC from lupus patients, STING-37 reporter cell line; assay type: cell-based, human; conditions: 10 μM, PBMC from three SLE patients, FIG. 2
Protocol: Material from Juvenile Dermatomyositis and Lupus patients were obtained from Necker Hospital, Paris, France or from Imagine Institute, Paris, France. The study was approved by the Conité des Protection des Personnes (ID-RCB/EUDRACT: 2014-A01017-40 and 2018-A01358-47) in France.
In vitro experiments were performed using human peripheral blood mononuclear cells (PBMCs) isolated by density centrifugation from peripheral blood leukocyte separation medium (Cambrex, Gaithersburg, Md.).
PBMCs were cultured in RPMI 1640 (Invitrogen, Gaithersburg, Md.) (R10) containing 10% heat-inactivated fetal bovine serum, 100 U/mL Penicilium and 100 μg/mL Streptomycin (1% Pen-Strep) and 1 mM glutamine (Hyclone, Logan, Utah).
1) The PBMCs used herein were prepared as described in part A “immune cells preparation”, section 1) above. PBMCs were seeded at 2.10^6/mL. […] Cells were then stimulated with the TLR7/8 agonist resiquimod—R848 (Invivogen) at 5 μg/mL. […]
1) To quantify the secretion of functional IFN, a biological assay based on a stable cell line where luciferase reporter gene is controlled by five Interferon-Stimulated Response Elements (STING37 cell line) was used. […] After 24 h of culture, luciferase activity was determined by adding 50 μL of Bright-Glo reagents (Promega) to culture wells and measuring bioluminescence with a luminometer.

**Q.** For `CC1(C)CN2C(CSC3=NCC(C)(C)N3)=CSC2=N1` [Example 2, 3-(((5,5-dimethyl-4,5-dihydro-1H-imidazol-2-yl)thio)methyl)-6,6-dimethyl-5,6-dihydroimidazo[2,1-b]thiazole dihydrochloride], which IC50 (IL-18) is on record?
**A.** 13 µM

**Q.** And the “antagonist activity: recruitment of G proteins induced by the hCXCR4-CXCL12 interaction” value [1]?
**A.** significantly lower than IT1t

**Q.** And the IC50 [2]?
**A.** 10 to 31 µM

**Q.** And the IC50 (TNF-α)?
**A.** 46 µM

**Q.** What about the “IFN production by activated PBMCs” value [3] of the same compound?
**A.** level similar to the one of unstimulated negative controls
